Measurements reported in patent US20100209345A1, “Fluorinated Ligands for Targeting Peripheral Benzodiazepine Receptors” (Australian Nuclear Science & Technology Organisation, priority 2006, published 2010).
Where two headings read alike, the source gives them in different places.

Columns and labels:
[1] = target: central benzodiazepine receptors; assay: In vitro binding, [3H]-Flumazenil, brain cortex membrane preparation; conditions: [3H]-Flumazenil (2 nM), 25° C., 45 min, read-out: CBR IC50
Description: (§1) Non-specific binding was determined with Flumazenil (20 μM). In both cases, incubations were terminated by rapid filtration through Whatman GF/B glass fibre. Filters were immediately washed 3 times with 5 mL ice-cold 50 mM Tris/HCl at pH 7.4. Filters were counted in a β-scintillation counter (Packard) to measure the amount of bound radioactivity. The IC50 of the compounds for the peripheral benzodiazepine binding site and the central benzodiazepine receptor were calculated using Kell 6 software.

[2] = target: T1, peripheral benzodiazepine binding site (Rattus norvegicus, UniProt P16257); assay: In vitro binding, [3H]-PK11195, kidney membrane preparation; conditions: [3H]-PK11195 (2 nM), 4° C., 1 h
T1 construct: diluted kidney membrane preparation (200 μg); from tissue; host or cells: kidney membrane preparation
Description: Non-specific binding was determined with PK11195 (10 μM).
as §1

CC(C)(C)c1ccc(-c2nc3ccc(F)nn3c2CNC(=O)c2ccccc2)cc1 [PBR 139, N-((2-(4-tert-butylphenyl)-6-fluoroimidazo[1,2-b]pyridazin-3-yl)methyl)benzamide]
IC50 [1]: 2.62 µM
chromatographic logP (LogP HPLC): 4.23 ± 0.13
IC50 ([2]; read-out: PBR IC50): 800 nM

2-(6-chloro-2-(4-methoxyphenyl)imidazo[1,2-b]pyridazin-3-yl)-N,N-diethylacetamide [PBR 133]
IC50 [1]: 0.0188 µM
LogP HPLC (LogP HPLC; HPLC): 2.35 ± 0.07
IC50 ([2]; read-out: PBR IC50): 32 nM

O=C(Cc1c(-c2ccc(OCCF)cc2)nc2ccc(Cl)cn12)N1CCCC1 [PBR104, 2-(2-(4-(2-fluoroethoxy)phenyl)-6-chloroimidazo[1,2-a]pyridin-3-yl)-1-(pyrrolidin-1-yl)ethanone]
IC50 [1]: 1.64 µM
chromatographic logP (LogP HPLC): 2.45 ± 0.08
IC50 ([2]; PBR IC50 (nM)): 575 nM

CCN(CC)C(=O)Cc1c(-c2ccc(C(C)(C)C)cc2)nc2ccc(F)nn12 [Compound 1, reference compound]
IC50 [1]: 0.34 µM
IC50 ([2]; PBR IC50 (nM)): 29 nM

CCN(CC)C(=O)Cc1c(-c2ccc(OCCCCF)cc2)nc2ccc(Cl)cn12 [PBR 120, 2-(2-(4-(4-fluorobutoxy)phenyl)-6-chloroimidazo[1,2-a]pyridin-3-yl)-N,N-diethylacetamide]
IC50 [1]: 0.942 µM
chromatographic logP (LogP HPLC): 3.53 ± 0.11
IC50 ([2]; PBR IC50 (nM)): 35 nM

CN(C)C(=O)Cc1c(-c2ccc(OCCF)cc2)nc2ccc(Cl)cn12 [PBR105, 2-(2-(4-(2-fluoroethoxy)phenyl)-6-chloroimidazo[1,2-a]pyridin-3-yl)-N,N-dimethylacetamide]
IC50 [1]: 1.76 µM
chromatographic logP (LogP HPLC): 2.04 ± 0.06
IC50 ([2]; PBR IC50 (nM)): 675 nM

CCN(CC)C(=O)Cc1c(-c2ccc(OCCF)cc2)nc2c(Cl)cc(Cl)cn12 [PBR 136, 2-(2-(4-(2-fluoroethoxy)phenyl)-6,8-dichloroimidazo[1,2-a]pyridin-3-yl)-N,N-diethylacetamide]
IC50 [1]: 0.588 µM
chromatographic logP (LogP HPLC): 2.99 ± 0.09
IC50 ([2]; PBR IC50 (nM)): 17.6 nM
